Data taken from patent US7875300B2, “Methods for reducing circulating glucose levels” (Rutgers, The State University of New Jersey, priority 2006, dated 2011).
Several values for one entry are separate records, joined by “and”; a condition that tells them apart may be missing. Equal values may be shown once.

Assays:
[1] = tested on: male C57BL/6 mice on high fat diet; experiment: Fasting blood glucose levels after a single gavage in mice on a high fat diet; format: in vivo; conditions: 300 mg, Group 5, gavage
Protocol: The Aframomum melegueta-derived hypoglycemic extract product of Example 1 was tested in vivo for hypoglycemic activity.
(§1) Five week old male C57BL/6 mice (Jackson Laboratories, Bar Harbor, Me.) were placed on either low fat or high fat rodent diets (D12450B, 10% kcal, low fat or D12492, 60% kcal, high fat, Research Diets, New Brunswick, N.J.).
The mice were housed four to a cage under controlled temperature ([…]) and 12 hr light-dark cycles. Food (standard mouse chow, Purina) and water were available on an ad libitum basis for 7 days. The mice were then randomly divided into six groups (n=6) for the study. Five groups of mice were fed the high fat diet for 12 weeks (Groups 1-5), and the sixth group (Group 6) was fed the low fat diet for 12 weeks. Weekly food intake per cage and individual body weights were determined throughout the study.
After 12 weeks, all mice (Groups 1-6) were fasted for 4 hrs. After fasting, Group 1 mice provided a control and were gavaged with saline containing 5% DMSO; mice of Groups 2-4 were gavaged with different concentrations of the hypoglycemic extract product of Example 1 in 5% DMSO; and, Group 5 mice were gavaged with 300 mg/kg of Metformin in 5% DMSO as a positive control. Group 6 mice, which were fed a low fat diet, were gavaged with saline containing 5% DMSO and thus were also used as a control. Blood glucose levels were measured with a One Touch® Ultra® handheld glucometer (Lifescan, Milpitas, Calif.) using One Touch® Ultra® test strips. Mice were deprived of food during testing and the blood glucose levels of whole blood (obtained from a tail nick procedure) were determined at certain times (0, 3, and 5 hours after fasting commenced).
[…] with compositions comprising […]. The blood glucose levels were tested immediately after treatment (0 hours) and then 3 and 5 hours after treatment.

[2] = tested on: high fat diet-induced diabetic model (male C57BL/6 mice); experiment: Oral glucose tolerance test in high fat diet-induced diabetic model; format: in vivo; conditions: OGTT after 1 wk
Protocol: The Aframomum melegueta-derived hypoglycemic extract product of Example 1 was tested in vivo for hypoglycemic activity using a high fat diet-induced diabetic model.
as §1
The mice were housed individually under controlled temperature (70° F.) and 12 hr light-dark cycles. Food (standard mouse chow, Purina) and water were available on an ad libitum basis for 7 days. The mice were then randomly divided into control Groups 1 and 6 (n=8-10), treatment Groups 2 and 3 (n=6), and two positive control Groups 4 and 5 (n=6) for the study. The control mice continued to receive either a high fat diet or a low fat diet, and the treatment groups were fed the high fat diet for a 14 week period. Two groups of mice were gavaged with PMI006 at a dose of 500 mg/kg daily. As a positive control, Metformin was administered at a dose of 300 mg/kg in two groups of positive control mice.
An oral glucose tolerance test was performed after seven days of treatment. On the test day, animals were fasted for seven hours and glucose (2.0 g/kg) was then orally administered to them. […]
Mice were deprived of food during testing and the blood glucose levels of whole blood (obtained from a tail nick procedure) were determined at certain times. The Aframomum melegueta-derived hypoglycemic extract product of Example 1 was orally administered at a dosage of 500 mg/kg to the two treatment Groups 2 and 3 either 1.5 or 3.0 hours before the glucose challenge. Metformin was orally administered at a dosage of 300 mg/kg to the animals in the positive control Groups 4 and 5 either 1.5 or 3.0 hours before the glucose challenge.

CN(C)C(=N)N=C(N)N [Metformin]
Avg. glucose ([1]; Time - 0 hours): 218.5 mg/dL
glucose (mg/dl), individual animals ([1]; Time - 0 hours): 252 mg/dL and 188 mg/dL and 194 mg/dL and 184 mg/dL and 274 mg/dL and 219 mg/dL
Avg. glucose ([1]; Time - 3 hours): 149.7 mg/dL
glucose (mg/dl), individual animals ([1]; Time - 3 hours): 66 mg/dL and 148 mg/dL and 161 mg/dL and 147 mg/dL and 157 mg/dL and 219 mg/dL
Average value ([1]; Time - 5 hours): 128.2 mg/dL
glucose (mg/dl), individual animals ([1]; Time - 5 hours): 145 mg/dL and 96 mg/dL and 119 mg/dL and 124 mg/dL and 162 mg/dL and 123 mg/dL
Plasma glucose ([2]; 300 mg/kg oral 1.5 hr before glucose challenge, Group 4, 0 min): 160 ± 4.9 mg/dL
Plasma glucose ([2]; 300 mg/kg oral 1.5 hr before glucose challenge, Group 4, 30 min): 235 ± 12.2 mg/dL
Plasma glucose ([2]; 300 mg/kg oral 1.5 hr before glucose challenge, Group 4, 60 min): 190 ± 11.1 mg/dL
Plasma glucose ([2]; 300 mg/kg oral 1.5 hr before glucose challenge, Group 4, 90 min): 164 ± 6.0 mg/dL
Plasma glucose ([2]; 300 mg/kg oral 3 hr before glucose challenge, Group 5, 0 min): 173 ± 13.2 mg/dL
Plasma glucose ([2]; 300 mg/kg oral 3 hr before glucose challenge, Group 5, 30 min): 207 ± 26.7 mg/dL
Plasma glucose ([2]; 300 mg/kg oral 3 hr before glucose challenge, Group 5, 60 min): 171 ± 14.8 mg/dL
Plasma glucose ([2]; 300 mg/kg oral 3 hr before glucose challenge, Group 5, 90 min): 158 ± 6.7 mg/dL
